Reference: patent US9650379B2 (CHONG KUN DANG PHARMACEUTICAL CORP., priority 2013, dated 2017)

Tests used:
HDAC6 human recombinant = target: T1, HDAC6 human recombinant (Homo sapiens, UniProt Q9UBN7); assay: Inhibition of HDAC6 activity (fluorimetric assay); type: biochemical; conditions: test concentrations 0.1, 1, 10, 100 and 1000 nM; 37° C., 60 minutes
T1 construct: purchased Calbiochem 382180
T1 sequence (Q9UBN7 1-1215): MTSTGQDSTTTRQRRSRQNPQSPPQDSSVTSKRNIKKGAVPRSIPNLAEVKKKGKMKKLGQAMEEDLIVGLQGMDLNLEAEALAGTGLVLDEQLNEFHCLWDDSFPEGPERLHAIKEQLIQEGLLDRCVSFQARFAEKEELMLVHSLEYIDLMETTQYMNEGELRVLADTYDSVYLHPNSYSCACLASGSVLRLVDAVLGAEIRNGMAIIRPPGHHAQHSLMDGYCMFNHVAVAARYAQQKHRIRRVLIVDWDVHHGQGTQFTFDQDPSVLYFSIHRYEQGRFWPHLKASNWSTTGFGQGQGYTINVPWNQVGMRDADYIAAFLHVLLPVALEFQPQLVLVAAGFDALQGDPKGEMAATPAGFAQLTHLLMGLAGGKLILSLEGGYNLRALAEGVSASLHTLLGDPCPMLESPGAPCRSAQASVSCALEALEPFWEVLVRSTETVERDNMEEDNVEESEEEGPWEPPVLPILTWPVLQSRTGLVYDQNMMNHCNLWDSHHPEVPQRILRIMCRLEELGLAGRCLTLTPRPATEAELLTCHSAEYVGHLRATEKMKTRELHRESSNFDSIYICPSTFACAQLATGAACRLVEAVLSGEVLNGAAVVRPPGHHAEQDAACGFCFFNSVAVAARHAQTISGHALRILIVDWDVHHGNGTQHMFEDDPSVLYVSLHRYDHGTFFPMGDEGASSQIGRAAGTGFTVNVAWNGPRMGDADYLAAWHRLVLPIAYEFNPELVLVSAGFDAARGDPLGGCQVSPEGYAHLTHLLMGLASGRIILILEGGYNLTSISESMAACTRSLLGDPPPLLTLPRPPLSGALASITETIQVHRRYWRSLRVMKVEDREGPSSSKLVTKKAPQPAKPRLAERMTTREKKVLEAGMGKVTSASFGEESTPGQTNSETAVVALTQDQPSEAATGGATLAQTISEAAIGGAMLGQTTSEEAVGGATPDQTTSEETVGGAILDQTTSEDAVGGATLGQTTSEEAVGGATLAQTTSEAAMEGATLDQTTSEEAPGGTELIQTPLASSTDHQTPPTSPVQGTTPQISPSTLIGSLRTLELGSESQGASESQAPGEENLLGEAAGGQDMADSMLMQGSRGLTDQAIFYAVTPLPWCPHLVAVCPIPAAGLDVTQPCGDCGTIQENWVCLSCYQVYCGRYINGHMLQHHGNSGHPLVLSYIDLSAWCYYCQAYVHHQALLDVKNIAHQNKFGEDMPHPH
Outline: (§1)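 HDAC1 tested with the kit assay mixture at 100, 1000 and 10000 nM compound; recombinant human HDAC6 at 0.1, 1, 10, 100 and 1000 nM. Reaction ran 60 min at 37° C, then developer was added for 30 min at 37° C and fluorescence quantified.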

HDAC1 = target: T2, HDAC1 (Homo sapiens, UniProt Q13547); assay: Inhibition of HDAC1 activity (HDAC1 fluorimetric drug discovery assay kit); type: biochemical; conditions: test concentrations 100, 1000 and 10000 nM; 37° C., 60 minutes
T2 construct: purchased Enzolifesciences BML-AK511
Outline: as §1

[1] = system: tubulin acetylation (HDAC6) in RPMI8226 cells; assay: Western blot analysis of tubulin acetylation in cells; type: cell-based; conditions: 24 hours, Western blot (FIG. 1)
Experimental: Specifically, RPMI8226 cells were seeded into a six-well plate at a density of 1.0×10^6 cells/well, and then treated with varying concentrations of each of compounds 636 and 642. After 24 hours, protein was extracted from the cells using RIPA buffer and quantified by the Bradford method. 25 μg of the protein was dissolved to sample buffer and electrophoresed on 4-12% gradient gel, and the gel was transferred to a nitrocellulose membrane for 50 minutes. The membrane was blocked in 5% skim milk solution for 1 hour. Anti-acetyl H3 antibody (1:2,000), anti-acetyl H4 antibody (1:5,000), anti-acetyl tubulin antibody (1:5,000) and anti-β-actin antibody (1:10,000) were added to 5% skim milk, and the membrane was immersed in the skim milk and allowed to react at 4° C. for 16 hours, after which it was washed three times with 1×TBS-T for 10 minutes each washing. IgG-HRP antibody (1:5,000) was added to 5% skim milk, and the membrane was immersed in the skim milk and allowed to react at room temperature for 40 minutes, after which it was washed three times with 1×TBS-T for 10 minutes each washing. Detection was performed by LAS 3000 using ECL solution.

[2] = system: CTLA4 expression in iTreg (CD4+CD25+Foxp3+) cells; assay: CTLA4 assay in induced regulatory T cells; type: cell-based, C57BL/6 mouse; conditions: 6 days incubation
Excerpt: In order to evaluate the effect of the compounds of the present invention on the expression of CTLA4, FOXP3+ induced regulatory T cells were induced from effector T cells (CD4+CD25−) isolated from the spleen of C57BL/6 mouse. Specifically, 6-week-old C57BL/6 mouse were purchased, and spleens were isolated therefrom, and separated into single cells by treatment with collagenase D. Effector T cells (CD4+CD25−, Teff) were separated from the mouse spleen cells using a CD4+CD25 regulatory T cell isolation kit (Miltenyi Biotec). Teff were plated on a 48-well plate at a density of 5×10^5 cells/well, and activated by adding a […] mAb-conjugated magnetic bead (T cell Activation/Expansion kit, Miltenyi Biotec) thereto. The activated cells were treated with TGF-β2 and each compound, and after 6 days, the cells were subjected to cell surface staining with CD4-PECy7 and CD25-APC (eBioscience) and to intracellular staining with FOXP3-Alexafluor488 and CTLA4-PE (eBioscience). Then, a change in the expression of CTLA4 in the induced regulatory T cells (iTreg) was analyzed by FACS Canto II (BD bioscience).

[3] = system: proliferation of effector T cells (Teff) co-cultured with Treg; assay: Regulatory T cell suppression function, Treg/Teff co-culture; type: cell-based, C57BL/6 mouse; conditions: Teff:Treg 2:1 co-culture, 3 days; vehicle group 27% suppression
Experimental: The effect of compound 636 on the proliferation of effector T cells in the co-culture condition of the regulatory T cells (Treg) and effector T cells (Teff) isolated from the spleen of C57BL/6 mouse was evaluated.
Specifically, 6-week-old C57BL/6 mouse were purchased, and spleens were isolated therefrom, and separated into single cells by treatment with collagenase D. Teff (CD4^+CD25^−) and Treg (CD4^+CD25^high) were isolated from the mouse spleen cells using a CD4^+CD25^high regulatory T cell isolation kit (Miltenyi Biotec). The Teff were stained with 5 μM Cell Proliferation Dye eFluor® 670 (eBioscience) at 37° C. under a light-shielded condition for 10 minutes, and incubated in cold complete media on ice for 5 minutes to stop the staining reaction, and then washed three times with complete media. The eFluor-stained effector T cells and the Treg were co-cultured on a U-bottom plate at a ratio of 2:1, and activated by adding a CD3εCD28 mAb-conjugated magnetic bead (T cell Activation/Expansion kit, Miltenyi Biotec) thereto. The activated cells were treated with compound 636, and after 3 days, the proliferation of the Teff was evaluated by analyzing the dilution pattern of eFluor® 670 with FACS Canto II (BD bioscience).

effector T cells (Teff) = assay: Viability (death) of Teff cells; type: cell-based, C57BL/6 mouse; conditions: treated for 24 hours

T2 sequence (Q13547 whole entry): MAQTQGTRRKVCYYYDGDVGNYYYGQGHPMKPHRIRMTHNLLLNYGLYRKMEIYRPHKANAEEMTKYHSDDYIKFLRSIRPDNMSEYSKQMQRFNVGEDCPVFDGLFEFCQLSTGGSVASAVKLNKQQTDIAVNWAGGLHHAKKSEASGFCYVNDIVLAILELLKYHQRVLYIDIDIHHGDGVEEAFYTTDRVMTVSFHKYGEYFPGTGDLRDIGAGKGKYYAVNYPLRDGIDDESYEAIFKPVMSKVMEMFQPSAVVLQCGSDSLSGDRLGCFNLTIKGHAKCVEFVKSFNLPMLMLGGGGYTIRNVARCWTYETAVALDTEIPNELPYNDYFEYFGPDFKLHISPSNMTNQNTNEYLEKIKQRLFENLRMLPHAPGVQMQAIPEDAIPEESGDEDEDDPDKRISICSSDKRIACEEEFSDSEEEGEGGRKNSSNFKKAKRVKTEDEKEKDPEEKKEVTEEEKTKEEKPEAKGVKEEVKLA

Row | Structure (SMILES) | IC50 (HDAC6 human recombinant) [nM] | IC50 (HDAC1) [nM] | compound concentration at which tubulin acetylation (HDAC6) appeared [1] | increase of the expression of CTLA4 in the iTreg (CD4+CD25+Foxp3+) population ([2]; concentrations of 100 and 500 nM) | suppression ratio of Teff relative to the vehicle group [3] [times] | viability of the Teff versus non-drug-treated group (effector T cells (Teff)) | increase of the expression of CTLA4 in the iTreg cells ([2]; concentration not stated separately) [times]
1 | CC(C)(F)CN1CCC(c2ccnc3c2ccn3Cc2ccc(C(=O)NO)cc2)CC1 [Compound 636, 4-((4-(1-(2-fluoro-2-methylpropyl)piperidin-4-yl)-1H-pyrrolo[2,3-b]pyridin-1-yl)methyl)-N-hydroxybenzamide] | 8 | 930 | about 300 nM | 1.5-2 times | 2 | did not differ | –
2 | CC(C)(F)CN1CCN(c2ccnc3c2ccn3Cc2ccc(C(=O)NO)cc2)CC1 [Compound 642, 4-((4-(4-(2-fluoro-2-methylpropyl)piperazin-1-yl)-1H-pyrrolo[2,3-b]pyridin-1-yl)methyl)-N-hydroxybenzamide] | 9 | 4310 | about 300 nM | – | – | – | ≥ 2
3 | COc1ccc(CN2CC3(CCN(c4ccnc5c4ccn5Cc4ccc(C(=O)NO)cc4)CC3)C2)cc1 [Compound 1023, N-hydroxy-4-((4-(2-(4-methoxybenzyl)-2,7-diazaspiro[3.5]nonan-7-yl)-1H-pyrrolo[2,3-b]pyridin-1-yl)methyl)benzamide] | 3.3 | 560 | – | – | – | – | –
4 | O=C(NO)c1ccc(Cn2ccc3c(N4CCC5(CC4)CN(Cc4cccnc4)C5)ccnc32)cc1 [Compound 1024, N-hydroxy-4-((4-(2-(pyridin-3-ylmethyl)-2,7-diazaspiro[3.5]nonan-7-yl)-1H-pyrrolo[2,3-b]pyridin-1-yl)methyl)benzamide] | 1.8 | 190 | – | – | – | – | –
5 | CC(C)(O)CN1CC2(CCN(c3ccnc4c3ccn4Cc3ccc(C(=O)NO)cc3)CC2)C1 [Compound 1025, N-hydroxy-4-((4-(2-(2-hydroxy-2-methylpropyl)-2,7-diazaspiro[3.5]nonan-7-yl)-1H-pyrrolo[2,3-b]pyridin-1-yl)methyl)benzamide] | 1.1 | 170 | – | – | – | – | –
6 | CC(C)(C(=O)O)N1CCC(c2ccnc3c2ccn3Cc2ccc(C(=O)NO)cc2)CC1 [Compound 1028, 2-(4-(1-(4-(hydroxycarbamoyl)benzyl)-1H-pyrrolo[2,3-b]pyridin-4-yl)piperidin-1-yl)-2-methylpropionic acid] | 1.4 | 420 | – | – | – | – | –
7 | O=C(NO)c1ccc(Cn2ccc3cc(N4CCC5(CCN(Cc6cccnc6)C5)CC4)cnc32)cc1 [Compound 1101, N-hydroxy-4-((5-(2-(pyridin-3-ylmethyl)-2,8-diazaspiro[4.5]decan-8-yl)-1H-pyrrolo[2,3-b]pyridin-1-yl)methyl)benzamide] | 1 | 500 | – | – | – | – | –
8 | O=C(NO)c1ccc(Cn2ccc3cc(N4CCC5(CC4)CN(Cc4ccccn4)C5)cnc32)cc1 [Compound 1126, N-hydroxy-4-((5-(2-(pyridin-2-ylmethyl)-2,7-diazaspiro[3.5]nonan-7-yl)-1H-pyrrolo[2,3-b]pyridin-1-yl)methyl)benzamide] | 1.24 | 640 | – | – | – | – | –
